In ChEMBL document CHEMBL4229345, “Inhibition of trypanosome alternative oxidase without its N-terminal mitochondrial targeting signal (ΔMTS-TAO) by cationic and non-cationic 4-hydroxybenzoate and 4-alkoxybenzaldehyde derivatives active against T. brucei and T. congolense” (Eur J Med Chem, 2018):
pEC50, pIC50: −log10 of the molar value.

Tests used:
[1] = tested on: Trypanosoma brucei brucei; assay: Anti-parasitic activity against bloodstream trypomastigote stage of Trypanosoma brucei brucei with AQP triple knock out after 48 hrs by resazurin-based assay; format: functional, organism-based
[2] = tested on: Trypanosoma brucei brucei; assay: Anti-parasitic activity against bloodstream trypomastigote stage of wild-type Trypanosoma brucei brucei Lister 427 after 48 hrs by resazurin-based assay; format: functional, organism-based; conditions: Lister 427, 48 h
[3] = Inhibition of recombinant N-terminal His6 tagged SUMO-fused Trypanosoma brucei brucei TC221 TAO MTS deletion mutant expressed in Escherichia coli FN102 preincubated for 2 mins followed by ubiquinol-1 addition measured over 2 mins by double beam-dual wavelength UV-spectrophotometry
Trypanosoma congolense = assay: Anti-parasitic activity against bloodstream form of Trypanosoma congolense IL3000 after 48 hrs by resazurin-based assay; format: functional, organism-based; conditions: IL3000, 48 h
[4] = tested on: Trypanosoma brucei brucei; assay: Anti-parasitic activity against bloodstream trypomastigote stage of Trypanosoma brucei brucei with AQP2/3-dd knock out after 48 hrs by resazurin-based assay; format: functional, organism-based
[5] = tested on: Trypanosoma brucei brucei; assay: Anti-parasitic activity against bloodstream trypomastigote stage of wild-type Trypanosoma brucei brucei Lister 427 after 48 hrs in presence of 5 mM glycerol by resazurin-based assay; format: functional, organism-based; conditions: Lister 427, 48 h
Trypanosoma brucei = assay: Anti-parasitic activity against bloodstream trypomastigote stage of pentamidine/diminazene/melaminophenyl arsenical resistant Trypanosoma brucei B48 after 48 hrs by resazurin-based assay; format: functional, organism-based; conditions: B48, 48 h
[6] = Cytotoxicity against HFF cells assessed as reduction in cell viability after 30 hrs by resazurin-based assay; conditions: human
[7] = tested on: Trypanosoma brucei brucei; assay: Resistance factor, ratio of EC50 for bloodstream trypomastigote stage of wild-type Trypanosoma brucei brucei Lister 427 in presence of 5 mM glycerol to EC50 for bloodstream trypomastigote stage of wild-type Trypanosoma brucei brucei Lister 427; format: functional
[8] = Cytotoxicity against HEK cells assessed as reduction in cell viability after 30 hrs by resazurin-based assay; conditions: human
[9] = tested on: Trypanosoma brucei brucei; assay: Resistance factor, ratio of EC50 for bloodstream trypomastigote stage of Trypanosoma brucei brucei with AQP2/3-dd knock out to EC50 for bloodstream trypomastigote stage of wild-type Trypanosoma brucei brucei Lister 427; format: functional
[10] = tested on: Trypanosoma brucei brucei; assay: Resistance factor, ratio of EC50 for bloodstream trypomastigote stage of Trypanosoma brucei brucei AQP triple knock out to EC50 for bloodstream trypomastigote stage of wild-type Trypanosoma brucei brucei Lister 427; format: functional
[11] = Resistance factor, ratio of EC50 for bloodstream trypomastigote stage of pentamidine/diminazene/melaminophenyl arsenical resistant Trypanosoma brucei B48 to EC50 for bloodstream trypomastigote stage of wild-type Trypanosoma brucei brucei Lister 427; format: functional
[12] = Selectivity index, ratio of CC50 for HEK cells to EC50 for bloodstream trypomastigote stage of wild-type Trypanosoma brucei brucei Lister 427; format: toxicity; conditions: human, read-out: Ratio CC50/EC50
[13] = Selectivity index, ratio of CC50 for HFF cells to EC50 for bloodstream form of Trypanosoma congolense IL3000; format: toxicity; conditions: human, read-out: Ratio CC50/EC50
[14] = Selectivity index, ratio of CC50 for HFF cells to EC50 for bloodstream trypomastigote stage of wild-type Trypanosoma brucei brucei Lister 427; format: toxicity; conditions: human, read-out: Ratio CC50/EC50

| Structure (SMILES) | pEC50 [1] | pEC50 [2] | pIC50 [3] | pEC50 (Trypanosoma congolense) | pEC50 [4] | pEC50 [5] | pEC50 (Trypanosoma brucei) | CC50 at 30 h [6] [µM] | Ratio EC50 [7] | CC50 at 30 h [8] [µM] | Ratio EC50 [9] | Ratio EC50 [10] | Ratio EC50 [11] | selectivity ratio [12] | selectivity ratio [13] | selectivity ratio [14] |
| --- | --- | --- | --- | --- | --- | --- | --- | --- | --- | --- | --- | --- | --- | --- | --- | --- |
| Cc1cc(O)ccc1C(=O)OCCCCCCCCCCCCCCOC(=O)c1ccc(O)cc1C | 3.40 | 3.40 | 7.89 | 3.40 | 3.40 | 3.40 | 3.40 | > 200 |  |  |  |  |  |  |  |  |
| O=C(OCCCCCCCCCCCCOC(=O)c1ccc(O)cc1O)c1ccc(O)cc1O | 5.05 | 4.48 | 8.15 | < 4.00 | 4.57 | 4.87 | 4.47 |  | 0.41 | > 400 | 0.81 | 0.27 | 1 | > 12 |  |  |
| O=C(OCCCCBr)c1ccc(O)cc1O | 3.40 | 3.40 | 6.35 |  | 3.40 | 3.40 | 3.40 | > 200 |  |  |  |  |  |  |  |  |
| O=C(O)c1ccc(O)cc1O [2,4-DIHYDROXYBENZOIC ACID] | 4.78 |  | 3.94 |  |  |  |  |  |  |  |  | 0.96 |  |  |  |  |
| O=C(OCCCCCCCCCCCCCCCC[n+]1cccc2ccccc21)c1ccc(O)cc1O |  |  | < 5.30 |  |  |  |  |  |  |  |  |  |  |  |  |  |
| O=C(OCCCCCCBr)c1ccc(O)cc1O | 4.92 | 4.75 | 6.62 | 4.14 | 4.94 | 4.92 | 4.69 | > 200 | 0.68 |  | 0.65 | 0.68 | 1.2 |  | > 2.7 | > 11 |
| O=Cc1ccc(OCCCCCCCCCCCCCC[n+]2cccc3ccccc32)cc1O.[Br-] | 5.97 | 5.76 | 5.91 | 5.68 | 6.02 | 5.91 | 5.63 | > 200 | 0.7 |  | 0.54 | 0.62 | 1.3 |  | > 95 | > 114 |
| Cc1cc(O)cc(O)c1C(=O)O [ORSELLINIC ACID] |  |  | 3.84 |  |  |  |  |  |  |  |  |  |  |  |  |  |
| O=C(NO)c1ccccc1O [SALICYLHYDROXAMIC ACID] | 5.05 |  |  |  | 4.50 |  |  |  |  |  |  |  |  |  |  |  |
| N=C(N)c1ccc(/N=N/Nc2ccc(C(=N)N)cc2)cc1 [DIMINAZENE] |  |  |  | 6.70 |  |  |  |  |  |  |  |  | 12 |  |  |  |
| O=COCCCCCCCCCCOC(=O)c1ccc(O)cc1O | 4.81 |  | 6.82 |  | 4.56 | 4.76 |  |  | 0.55 | > 400 | 0.86 | 0.49 | 0.69 | > 12 |  |  |
| Cc1cc(O)cc(O)c1C(=O)OCCCCCCCCCCCCCCBr | 5.17 | 4.84 | 8.15 | < 4.00 | 5.14 | 5.11 | 4.81 | > 200 | 0.53 |  | 0.5 | 0.47 | 1.1 |  |  | > 13 |
| O=C(O)c1ccc(O)cc1F |  |  | 3.94 |  |  |  |  |  |  |  |  |  |  |  |  |  |
| O=C(OCCCCCCCCCCCCCCOC(=O)c1ccc(O)cc1O)c1ccc(O)cc1O | 4.83 | 4.38 | 7.80 | < 4.00 | 4.55 | 4.80 | 4.44 |  | 0.38 | > 400 | 0.67 | 0.35 | 0.87 | > 9 |  |  |
